Results reported in patent publication US10155733B2, “N-aralkylcarbonyl-piperazine and -homopiperazine compounds and personal care compositions comprising the same” (Conopco, Inc., priority 2015, dated 2018).

test system: human living skin equivalents; experiment: not given; format: cell-based; details: not given

| Compound | % Increase in Ki-67 stained positive cells over vehicle |
| --- | --- |
| O=C(N1CCN(CCCc2ccccc2)CC1)C(O)(c1ccccc1)C1CCCC1 (stereo not drawn) [Compound 7d] | 127% |

test system: not listed separately; experiment: pH measurements of test compound solutions; format: physicochemical; details: not given
Method: Equimolar amounts of test compounds were used instead of weight % amounts to ensure a fair (molar-basis) comparison between test compounds. […] The pH of all test solutions was measured @ 22° C. using a Corning pH meter model 430 with a flat surface combo w/RJ electrode. The pH meter was calibrated using standard pH 7 & 12 buffers.

| Compound | Measured pH of solution |
| --- | --- |
| O=C(N1CCNCC1)C(O)(c1ccccc1)C1CCCC1 (stereo not drawn) [Compound 6b] | 10.0 |
| O=C(N1CCCNCC1)C(O)(c1ccccc1)C1CCCC1 (stereo not drawn) [Compound 6j] | 9.9 |

same assay, conditions: 79 mM (equimolar) in isopropyl alcohol/water, 22° C.

| Measured pH of solution | Compound |
| --- | --- |
| 11.0 | CN1CCNCC1 [Compound 14] |
| 11.5 | CN1CCCNCC1 [Compound 15] |

molecular target: human M3 receptor (Homo sapiens (Human), UniProt P20309); experiment: Muscarinic 3 receptor binding assay (3H-scopolamine displacement); details: not given
Sequence (P20309 whole entry): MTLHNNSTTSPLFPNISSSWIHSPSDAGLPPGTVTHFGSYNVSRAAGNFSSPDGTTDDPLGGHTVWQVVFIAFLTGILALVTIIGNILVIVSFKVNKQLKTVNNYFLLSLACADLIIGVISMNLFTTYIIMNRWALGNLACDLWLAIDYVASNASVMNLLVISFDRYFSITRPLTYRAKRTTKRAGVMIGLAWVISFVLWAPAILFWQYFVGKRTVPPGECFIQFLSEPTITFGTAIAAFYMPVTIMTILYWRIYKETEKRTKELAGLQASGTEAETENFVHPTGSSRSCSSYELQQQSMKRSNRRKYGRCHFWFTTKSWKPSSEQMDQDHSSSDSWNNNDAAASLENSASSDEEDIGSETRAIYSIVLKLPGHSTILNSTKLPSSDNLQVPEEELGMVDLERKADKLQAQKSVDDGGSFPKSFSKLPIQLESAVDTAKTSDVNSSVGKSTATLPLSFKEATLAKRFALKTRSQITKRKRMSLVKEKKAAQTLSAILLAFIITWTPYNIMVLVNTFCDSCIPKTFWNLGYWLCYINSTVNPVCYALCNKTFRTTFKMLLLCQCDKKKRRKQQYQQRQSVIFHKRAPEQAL
Method: The muscarinic 3 receptor binding assay was adapted from Perkin Elmer. […] Atropine (Sigma-Aldrich, St. Louis, Mo.) was used as a positive control. […] The reaction mixtures were then added to matrix 96-well GFC filtration microtiter plates that had been previously pretreated with 0.5% polyethylimine (100 μL) for 4 h and filtered. The binding reactions were terminated by filtering through the GFC plates and washing & filtering with ice-cold phosphate saline buffer (5×100 μL). Once the filters were dry, microscint scintillation cocktail (100 μL) was added to each well, allowed to sit for 20 min and the plates analyzed using a TopCount scintillation counter. […] Curve fitting of % inhibition versus concentration using Excell software allowed determination of IC50 values for test compounds.

| Compound | IC50 |
| --- | --- |
| O=C(C(c1ccccc1)C1CCCC1)N1CCN(CCc2ccccc2)CC1 (stereo not drawn) [Compound 7a] | 1800 nM |
| O=C(N1CCN(CCCc2ccccc2)CC1)C(O)(c1ccccc1)C1CCCC1 (stereo not drawn) [Compound 7d] | 63 nM |
| O=C(N1CCN(C/C=C/c2ccccc2)CC1)C(O)(c1ccccc1)C1CCCC1 (stereo not drawn) [Compound 7e] | 195 nM |
| O=C(N1CCN(CCc2ccccc2)CC1)C(O)(c1ccccc1)C1CCCC1 (stereo not drawn) [Compound 7f] | 4700 nM |
| CC(Cc1ccc2c(c1)OCO2)CN1CCN(C(=O)C(O)(c2ccccc2)C2CCCC2)CC1 (stereo not drawn) [Compound 7i] | 4600 nM |
| O=C(N1CCN(CCOc2ccccc2)CC1)C(O)(c1ccccc1)C1CCCC1 (stereo not drawn) [Compound 9c] | 1200 nM |
| COc1ccc(CCN2CCN(C(=O)C(O)(c3ccccc3)C3CCCC3)CC2)cc1 (stereo not drawn) [Compound 9d] | 357 nM |
| O=C(CN1CCN(C(=O)C(O)(c2ccccc2)C2CCCC2)CC1)c1ccccc1 (stereo not drawn) [Compound 9h] | 2700 nM |
| O=C(N1CCN(CC(O)c2ccccc2)CC1)C(O)(c1ccccc1)C1CCCC1 (stereo not drawn) [Compound 11] | 4300 nM |

same assay, conditions: CHO cell membranes expressing human M3 receptor, 3H-scopolamine

| IC50 | Compound |
| --- | --- |
| 5300 nM | CN1CCN(C(=O)C(c2ccccc2)C2CCCCC2)CC1 (stereo not drawn) [Compound 3a] |
| 2100 nM | CN1CCN(C(=O)C(c2ccccc2)C2CCCC2)CC1 (stereo not drawn) [Compound 3b] |
| 7900 nM | CCCCCCN1CCN(C(=O)C(c2ccccc2)C2CCCC2)CC1 (stereo not drawn) [Compound 3d] |
| 409 nM | CN1CCCN(C(=O)C(c2ccccc2)C2CCCC2)CC1 (stereo not drawn) [Compound 3f] |
| 2100 nM | O=C(C(c1ccccc1)C1CCCC1)N1CCN(CCCc2ccccc2)CC1 (stereo not drawn) [Compound 7b] |
| 6000 nM | O=C(C(c1ccccc1)C1CCCC1)N1CCN(CCC2CCCCC2)CC1 (stereo not drawn) [Compound 9a] |

| Compound | IC50 |
| --- | --- |
| O=C(C(c1ccccc1)C1CCCC1)N1CCN(C/C=C/c2ccccc2)CC1 (stereo not drawn) [Compound 7c] | 599 nM |
